Source: patent US9308284B2, “Formulations of fluorinated stilbene suitable for PET imaging” (PIRAMAL IMAGING SA, priority 2011, dated 2016)

Assays:
[1] = Stability of Formulation 1 comprising HCl salt of Compound 1 for 12 hours at room temperature; assay type: physicochemical
Protocol: The term “concentration interval of compound 2” as used herein is corrected for the decay of fluorine-18.
Formulation 1 was prepared containing 3 μg/mL of Compound 1 (according to 3.3 μg/mL HCl salt of compound 1). The assay was analysed after preparation and after 12 hours storage according to the short shelf life of PET imaging tracer, typically expected between 6 and 10 hours. Eight individual batches were prepared and analysed for assay.
Table 1 indicates the results of stability testing after 12 hours of n=8 individually manufactured batches.
Minisart HY 0.2 μm is a sterile filter with PTFE hydrophobic membrane.

[2] = Hydrophobic filters and adsorption: Compound 1 concentration before and after sterile filtration of 10 mL Formulation 1; assay type: physicochemical; conditions: for Filtrate (%) / Adsorption: n=6
Protocol: Formulation 1 comprising compound 1 was prepared as indicated above and filtered using selected sterile filters. Adsorption of compound 1 was determined by measuring the concentration of Compound 1 before and after filtration of 10 mL of Formulation 1 and subsequent calculation of the adsorption. Table 2 indicates the results of adsorption experiments using different filters.

[3] = Formulation 1, Pall HP2002 0.2 μm, Versapor R hydrophobic

Visual Inspection ([1]; Formulation 1, 3 μg/mL Compound 1 (3.3 μg/mL HCl salt), 12 h storage at RT, n=8 batches): clear
ΔFiltration in % ([1]; Formulation 1, 12 h at RT, n=8, Minisart HY 0.2 μm): 1.9%
Content of Compound 1 in % after 12 h, after filtration (Minisart HY 0.2 μm) ([1]; Formulation 1, 12 h at RT, n=8, PTFE sterile filter, relative to concentration after preparation): 97.0%
Content of Compound 1 in % after 12 h, prior filtration ([1]; Formulation 1, 12 h at RT, n=8, relative to concentration after preparation (2.97 to 3.14 μg/mL)): 98.9%
Chemical stability in the formulation ([1]; Formulation 1, 12 hours, RT): chemically stable
Filtrate (%) ([2]; Formulation 1, Millex GV 0.22 μm (Millipore, SLGV033RS), PVDF): 94.0 ± 0.7%
Adsorption ([2]; Formulation 1, Millex GV 0.22 μm (SLGV033RS), PVDF): 6.0%
Adsorption ([2]; Formulation 1, Minisart HY 0.2 μm (16596-HYK), PTFE): 1.2%
Filtrate (%) ([2]; Formulation 1, Minisart HY 0.2 μm (Sartorius Stedim, 16596-HYK), PTFE): 98.8 ± 0.6%
Adsorption ([2]; Formulation 1, Minisart High Flow 0.2 μm (16532), polyethersulfone): 36.1%
Filtrate (%) ([2]; Formulation 1, Minisart High Flow 0.2 μm (Sartorius Stedim, 16532), polyethersulfone): 63.9 ± 1.8%
Adsorption ([2]; Formulation 1, Minisart SRP25 0.2 μm (17575), PTFE): 0.6%
Filtrate (%) ([2]; Formulation 1, Minisart SRP25 0.2 μm (Sartorius Stedim, 17575), PTFE): 99.4 ± 0.3%
Adsorption [2, 3]: 14.2%
Filtrate (%) [2, 3]: 85.8 ± 0.3%
Amount of compound 1 adsorbed onto the filter material ([2]; filter units containing PTFE and PVDF): low amount
SMILES: CNc1ccc(/C=C/c2ccc(OCCOCCOCCF)cc2)cc1 [Compound 1]
